Assay results: US6391568B1, “Method for determining platelet reactivity in a whole blood sample” (Lionheart Technologies, Inc., priority 1998, dated 2002)

System: platelets (surface glycoprotein IIb-IIIa)
Test: Inhibition of fibrinogen*FITC binding to ADP-activated platelets in whole blood spiked with ReoPro (microtitration well capture)
Assay type: cell-based
Conditions: whole blood (CTI 32 μg/ml) pretreated with ReoPro 3 μg/ml; ADP 0, 0.4, 0.8 μM; FIG. 3
Excerpt: The concentration of ReoPro used is that known to inhibit the aggregation of platelets as determined with the use of aggregometry.

## ReoPro: antiplatelet drug that inhibits binding of fibrinogen to the activated conformer of surface glycoprotein IIb-IIIa
  binding of fibrinogen*FITC to platelets (ratio of fibrinogen*FITC signal to CD42*PerCP signal): inhibits
